Test results published in the NIST ThermoML archive (doi:10.1021/je900093h).

Key:
[1] = Molar enthalpy of transition or fusion; conditions: Crystal
[2] = molar enthalpy of vaporization or sublimation; conditions: 304.79 K; Liquid; Static calorimetry
[3] = molar heat capacity at constant pressure; conditions: 101.33 kPa, Vacuum adiabatic calorimetry
[4] = for vapor or sublimation pressure: Liquid, Calculated from knudsen effusion weight loss

CCCCCCCCCC(=O)OCC [ethyl decanoate]
Conditions | Molar enthalpy of transition or fusion [kJ/mol] | molar enthalpy [kJ/mol]
[1] | 32.29 | –
[2] | – | 69.9

molar heat capacity at constant pressure [J/K/mol], [3]
Conditions | Crystal | Liquid
5 K | 0.498 | –
10 K | 4.477 | –
15 K | 11.92 | –
20 K | 21.04 | –
25 K | 30.97 | –
30 K | 41.18 | –
35 K | 51.36 | –
40 K | 61.27 | –
45 K | 71.2 | –
50 K | 80.91 | –
60 K | 98.99 | –
70 K | 115.2 | –
80 K | 130.2 | –
90 K | 144.3 | –
100 K | 157.4 | –
110 K | 169.3 | –
120 K | 180 | –
130 K | 189.6 | –
140 K | 198.3 | –
150 K | 206.8 | –
160 K | 214.7 | –
170 K | 222.5 | –
180 K | 230.5 | –
190 K | 238.8 | –
200 K | 247.4 | –
210 K | 256.7 | –
220 K | 266.7 | –
230 K | 277.5 | –
240 K | 288.9 | –
250 K | 301.2 | –
253.6 K | 305.7 | 386.5
260 K | – | 388.1
270 K | – | 391.3
280 K | – | 395.2
290 K | – | 399.6
298.15 K | – | 403.5
300 K | – | 404.4
310 K | – | 409.6
320 K | – | 415
330 K | – | 420.6
340 K | – | 426.4
350 K | – | 432.3
360 K | – | 438.3
370 K | – | 444.5

[4]
Conditions | Triple point temperature [K] | vapor or sublimation pressure [kPa]
293.77 K | – | 0.00169
298.67 K | – | 0.00267
298.72 K | – | 0.00267
303.68 K | – | 0.00414
308.61 K | – | 0.00648
313.57 K | – | 0.01
318.32 K | – | 0.0152
323.24 K | – | 0.0219
Crystal | 253.6 | –
